Test: solubility of the reactive azo compounds in toluene (weight percent solubility)
Format: physicochemical
Conditions: for WPS (weight percent solubility in toluene): heated to boil, cooled to room temperature, filtered (0.45 μm), dry residue mass / filtrate mass; for solubility in toluene relative to compounds of similar structure (in words): comparison of methyl ester comparative compounds with the yellow azo compounds of the invention
Protocol: The solubilites of the reactive azo compounds of Examples 1, 2, 3 and 4 and Comparative Examples 1, 2 and 3 (C-1, C-2 and C-3) in toluene were determined according to the following procedures: A sample (0.2 g) of each compound was added to a screw top vial followed by the addition of toluene (0.5 mL for each vial containing the reactive azo compound of Examples 1, 3, 4 or C-3; 1.0 mL for Examples 2 or C-1; 1.5 mL for Example C-2. Each vial was capped and heated until the solution or mixture began to boil. Each solution or mixture then was allowed to cool to room temperature. Various amounts of toluene were required to give a filterable solution or suspension upon cooling. The solutions or suspensions of the azo compounds were filtered (0.45 μm nylon membrane with glass microfiber prefilter, Autovial®, Whatman Inc.) to give homogenous solutions (filtrates). Each filtered solution was weighed and the toluene solvent was removed under reduced pressure to give the mass of dry residue of each azo compound dissolved in the toluene solvent. The weight percent solubility of each azo compound is defined as [formula]
wherein WPS is the weight percent solubility for each azo compound in toluene and Dry Azo Compound Residue and Toluene Solution Filtrate are produced as described above. The results of the toluene solubility evaluations are shown in Table II wherein Azo compound refers to the example in which the reactive azo compound and its preparation is described.

SMILES	WPS (weight percent solubility in toluene) [weight percent]	solubility in toluene relative to compounds of similar structure (in words)
C=C(C)c1cccc(C(C)(C)NC(=O)OCCn2c(O)c(/N=N/c3ccccc3C(=O)OCC(CC)CCCC)c(C)c(C#N)c2=O)c1 (stereo not shown) [Example 1]	37.5	–
C=C(C)C(=O)OCCn1c(O)c(/N=N/c2ccccc2C(=O)OCC(CC)CCCC)c(C)c(C#N)c1=O (stereo not shown) [Example 3]	33.3	–
C=C(C)C(=O)OCCn1c(O)c(/N=N/c2ccccc2C(=O)OCCOCC)c(C)c(C#N)c1=O [Example 4]	35.5	–
C=C(C)c1cccc(C(C)(C)NC(=O)OCCn2c(O)c(/N=N/c3ccc(C(=O)OC)cc3)c(C)c(C#N)c2=O)c1 [Example C-1]	8.8	much lower
C=C(C)c1cccc(C(C)(C)NC(=O)OCCn2c(O)c(/N=N/c3ccccc3C(=O)OC)c(C)c(C#N)c2=O)c1 [Example C-2]	2.3	much lower

Results, then the molecule that gave them:

WPS (weight percent solubility in toluene) [weight percent]	solubility in toluene relative to compounds of similar structure (in words)	SMILES
18.6	–	C=C(C)C(=O)OCCn1c(O)c(/N=N/c2ccccc2C(=O)OCC(C)C)c(C)c(C#N)c1=O [Example 2]
11.1	much lower	C=C(C)C(=O)OCCn1c(O)c(/N=N/c2ccccc2C(=O)OC)c(C)c(C#N)c1=O [Example C-3]

From patent US20070207331A1, “Azo compounds and coating compositions containing the azo compounds” (priority 2006, published 2007)
